Data reported in patent publication US12685312B2, “Sulfonamide apyrase inhibitors” (Texas Crop Science, Inc., priority 2022, dated 2026).

Test system: apyrase
Experiment: Screen for apyrase inhibitors (Method 1, in vitro phosphate-release absorbance assay)
Assay type: biochemical
Settings: inhibitor conc at 1 mM stock, 1 hr room temperature, absorbance 630 nm; rounded average of two assay results
Procedure, shortened: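 Phosphate-release colorimetric assay (Windsor method) in 60 mM Hepes, 3 mM MgCl2, 3 mM CaCl2, 3 mM ATP, pH 6.5, with compound or DMSO control added. Released phosphate developed with ammonium molybdate and ascorbic acid/TCA, then stopped with citrate/acetic acid.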

% Inhibition of Apyrase [%]	SMILES
57	O=C(Nc1cccc(C(F)(F)F)c1)c1cccc(NS(=O)(=O)c2ccc(Cl)c(C(=O)O)c2)c1 [I-321, 2-chloro-5-(N-(3-((3-(trifluoromethyl)phenyl)carbamoyl)phenyl)sulfamoyl)benzoic acid]
76	CC1Cc2ccccc2N1C(=O)c1ccc(S(=O)(=O)Nc2ccccc2)cc1 (stereo not drawn) [I-857, 4-(2-methylindoline-1-carbonyl)-N-phenylbenzenesulfonamide]
59	Cn1cc(O)nc1NC(=O)c1cccc(S(=O)(=O)Nc2ccc(Br)cc2)c1 [I-12, 3-(N-(4-bromophenyl)sulfamoyl)-N-(4-hydroxy-1-methyl-1H-imidazol-2-yl)benzamide]
51	CCc1ccccc1NC(=O)c1cccc(S(=O)(=O)N2CCc3ccccc32)c1 [I-566, N-(2-ethylphenyl)-3-(indolin-1-ylsulfonyl)benzamide]
56	O=C(Nc1ccc(Cl)c(Cl)c1)c1ccc(NS(=O)(=O)c2ccc(F)c(F)c2)cc1 [I-926, N-(3,4-dichlorophenyl)-4-((3,4-difluorophenyl)sulfonamido)benzamide]
55	Cc1cc(C(=O)Nc2cccc(S(=O)(=O)Nc3ccccc3F)c2)no1 [I-731, N-(3-(N-(2-fluorophenyl)sulfamoyl)phenyl)-5-methylisoxazole-3-carboxamide]
25	CS(=O)(=O)c1ccc2c(c1)N(C(=O)c1cccc(S(=O)(=O)N3CCc4ccccc43)c1)CCC2 [I-603, (3-(indolin-1-ylsulfonyl)phenyl)(7-(methylsulfonyl)-3,4-dihydroquinolin-1(2H)-yl)methanone]
65	CN(c1ccccc1)S(=O)(=O)c1cccc(NC(=O)c2cc3cc(F)ccc3[nH]2)c1 [I-704, 5-fluoro-N-(3-(N-methyl-N-phenylsulfamoyl)phenyl)-1H-indole-2-carboxamide]
61	O=C(Nc1cccc(F)c1)c1cccc(S(=O)(=O)N2CCc3ccccc32)c1 [I-443, N-(3-fluorophenyl)-3-(indolin-1-ylsulfonyl)benzamide]
68	O=C(NC1CCCc2ccccc21)c1cccc(S(=O)(=O)Nc2ccc(Br)cc2)c1 (stereo not drawn) [I-244, 3-(N-(4-bromophenyl)sulfamoyl)-N-(1,2,3,4-tetrahydronaphthalen-1-yl)benzamide]
77	O=C(Nc1ccc(OC(F)F)c(Cl)c1)c1cccc(S(=O)(=O)Nc2ccc3c(c2)OCO3)c1 [I-181, 3-(N-(benzo[d][1,3]dioxol-5-yl)sulfamoyl)-N-(3-chloro-4-(difluoromethoxy)phenyl)benzamide]
42	Cc1cccc(NC(=O)c2ccc(NS(=O)(=O)c3ccc4c(c3)OCCO4)cc2)c1 [I-949, 4-((2,3-dihydrobenzo[b][1,4]dioxine)-6-sulfonamido)-N-(m-tolyl)benzamide]
8	O=C(Nc1ccccc1NS(=O)(=O)c1ccc2oc(=O)ccc2c1)c1ccc(Cl)cc1 [I-841, 4-chloro-N-(2-((2-oxo-2H-chromene)-6-sulfonamido)phenyl)benzamide]
59	Cc1ccc(Cl)cc1NC(=O)c1ccc(S(=O)(=O)N2CCCc3ccccc32)cc1 [I-863, N-(5-chloro-2-methylphenyl)-4-((3,4-dihydroquinolin-1(2H)-yl)sulfonyl)benzamide]
18	COc1ccc([N+](=O)[O-])cc1NS(=O)(=O)c1ccc(C(=O)Nc2ccc(F)cc2F)cc1 [I-412, N-(2,4-difluorophenyl)-4-(N-(2-methoxy-5-nitrophenyl)sulfamoyl)benzamide]
58	CCN(CC)S(=O)(=O)c1cccc(NC(=O)c2ccc(S(=O)(=O)N3CCCc4ccccc43)cc2)c1 [I-868, N-(3-(N,N-diethylsulfamoyl)phenyl)-4-((3,4-dihydroquinolin-1(2H)-yl)sulfonyl)benzamide]
57	O=C(Nc1nc2c(s1)CCC2)c1cccc(NS(=O)(=O)c2ccc3c(c2)OCCO3)c1 [I-637, N-(5,6-dihydro-4H-cyclopenta[d]thiazol-2-yl)-3-((2,3-dihydrobenzo[b][1,4]dioxine)-6-sulfonamido)benzamide]
47	COC(=O)c1cccc2c1CCCN2C(=O)c1cccc(S(=O)(=O)N(C)c2ccccc2)c1 [I-580, methyl 1-(3-(N-methyl-N-phenylsulfamoyl)benzoyl)-1,2,3,4-tetrahydroquinoline-5-carboxylate]
35	O=C(Nc1ccc(OC(F)F)cc1)c1ccccc1NS(=O)(=O)c1ccc(F)cc1 [I-376, N-(4-(difluoromethoxy)phenyl)-2-((4-fluorophenyl)sulfonamido)benzamide]
65	COc1ccc(CC(=O)Nc2cccc(S(=O)(=O)Nc3ccc(Br)cc3)c2)cc1F [I-330, N-(3-(N-(4-bromophenyl)sulfamoyl)phenyl)-2-(3-fluoro-4-methoxyphenyl)acetamide]
13	O=C(Nc1cccc(C(F)(F)F)c1)c1cccc(NS(=O)(=O)c2ccccc2F)c1 [I-326, 3-((2-fluorophenyl)sulfonamido)-N-(3-(trifluoromethyl)phenyl)benzamide]

More lines, now with the values behind:

SMILES	% Inhibition of Apyrase [%]
COc1ccccc1C(=O)Nc1ccc(S(=O)(=O)Nc2ccc(Cl)cc2)cc1 [I-978, N-(4-(N-(4-chlorophenyl)sulfamoyl)phenyl)-2-methoxybenzamide]	59
Cc1ccc(C(=O)Nc2cccc(C(=O)O)c2)cc1S(=O)(=O)Nc1ccc(Br)cc1 [I-35, 3-(3-(N-(4-bromophenyl)sulfamoyl)-4-methylbenzamido)benzoic acid]	17
COc1ccc(C(=O)Nc2ccc(F)c(F)c2)cc1S(=O)(=O)Nc1ccc(Br)cc1 [I-26, 3-(N-(4-bromophenyl)sulfamoyl)-N-(3,4-difluorophenyl)-4-methoxybenzamide]	28
O=C(Nc1ccccc1Cl)c1cccc(NS(=O)(=O)c2cccs2)c1 [I-665, N-(2-chlorophenyl)-3-(thiophene-2-sulfonamido)benzamide]	22
Nc1c(Cl)cc(NC(=O)c2cccc(S(=O)(=O)N3CCc4ccccc43)c2)cc1Cl [I-439, N-(4-amino-3,5-dichlorophenyl)-3-(indolin-1-ylsulfonyl)benzamide]	63
N#Cc1cccc(S(=O)(=O)Nc2cccc(C(=O)Nc3cccc(C(F)(F)F)c3)c2)c1 [I-196, 3-((3-cyanophenyl)sulfonamido)-N-(3-(trifluoromethyl)phenyl)benzamide]	74
O=C(Nc1nc2ccccc2[nH]1)c1cccc(NS(=O)(=O)c2ccc3c(c2)OCCO3)c1 [I-656, N-(1H-benzo[d]imidazol-2-yl)-3-((2,3-dihydrobenzo[b][1,4]dioxine)-6-sulfonamido)benzamide]	34
COc1ccc(N(C)S(=O)(=O)c2cccc(C(=O)N3CCc4ccccc43)c2)cc1 [I-540, 3-(indoline-1-carbonyl)-N-(4-methoxyphenyl)-N-methylbenzenesulfonamide]	54
COc1ccc(NC(=O)c2cccc(S(=O)(=O)Nc3ccc(Cl)cc3)c2)cc1 [I-246, 3-(N-(4-chlorophenyl)sulfamoyl)-N-(4-methoxyphenyl)benzamide]	66
O=C(NCCCN1CCOCC1)c1cccc(S(=O)(=O)Nc2ccc(Br)cc2)c1 [I-284, 3-(N-(4-bromophenyl)sulfamoyl)-N-(3-morpholinopropyl)benzamide]	27
CC(=O)c1ccccc1NC(=O)c1cccc(S(=O)(=O)N2c3ccccc3CC2C)c1 (stereo not drawn) [I-610, N-(2-acetylphenyl)-3-((2-methylindolin-1-yl)sulfonyl)benzamide]	4
Cc1ccc(NC(=O)c2ccc(NS(=O)(=O)c3ccccc3)cc2)cc1C [I-917, N-(3,4-dimethylphenyl)-4-(phenylsulfonamido)benzamide]	58
Cc1ccc(C(=O)Nc2cccc([N+](=O)[O-])c2)cc1S(=O)(=O)Nc1ccc(C(=O)O)cc1 [I-45, 4-((2-methyl-5-((3-nitrophenyl)carbamoyl)phenyl)sulfonamido) benzoic acid]	13
O=C(Nc1cccc(Cl)c1)c1cccc(S(=O)(=O)N2CCc3ccccc32)c1 [I-515, N-(3-chlorophenyl)-3-(indolin-1-ylsulfonyl)benzamide]	56
CCCOc1ccc(C(=O)Nc2cccc(NS(=O)(=O)c3ccc(C)c(C)c3)c2)cc1OC [I-348, N-(3-((3,4-dimethylphenyl)sulfonamido)phenyl)-3-methoxy-4-propoxybenzamide]	48
O=C(Nc1[nH]ncc1-c1ccccc1)c1cccc(NS(=O)(=O)c2ccc(F)c(F)c2)c1 [I-657, 3-((3,4-difluorophenyl)sulfonamido)-N-(4-phenyl-1H-pyrazol-5-yl)benzamide]	34
COc1ccc(NS(=O)(=O)c2cccc(NC(=O)c3ccc(Cl)nc3)c2)cc1 [I-714, 6-chloro-N-(3-(N-(4-methoxyphenyl)sulfamoyl)phenyl) nicotinamide]	58
Cc1cc(F)c2c(c1)CCCN2C(=O)c1cccc(S(=O)(=O)N2CCc3ccccc32)c1 [I-493, (8-fluoro-6-methyl-3,4-dihydroquinolin-1(2H)-yl)(3-(indolin-1-ylsulfonyl)phenyl)methanone]	58
CC1Cc2ccccc2N1S(=O)(=O)c1cccc(C(=O)Nc2cccc(S(=O)(=O)N(C)C)c2)c1 (stereo not drawn) [I-556, N-(3-(N,N-dimethylsulfamoyl)phenyl)-3-((2-methylindolin-1-yl)sulfonyl)benzamide]	52
Cc1ccc(N(C)S(=O)(=O)c2cccc(C(=O)N3c4ccccc4CC3C)c2)cc1 (stereo not drawn) [I-481, N-methyl-3-(2-methylindoline-1-carbonyl)-N-(p-tolyl)benzenesulfonamide]	58
Cc1nc2ccc(NC(=O)c3ccc(S(=O)(=O)N4CCCc5ccccc54)cc3)cc2s1 [I-889, 4-((3,4-dihydroquinolin-1(2H)-yl)sulfonyl)-N-(2-methylbenzo[d]thiazol-6-yl)benzamide]	39
